Experimental data from US6767991B1, “Hepatitis C inhibitor peptides” (priority 1997, dated 2004).
Like-named read-outs stand apart in the source and are kept apart here. *1 amine or outer side, *2 acyl side, *3 side chain or, on linkers, in order; H or OH if unused. Where a SMILES comes first, the peptide text is derived from it. Where no end group is shown, it is not given here. [ ]: non-standard residue; d: D form. The star is where a group is joined. Acca(2-Et,1R,2R) = CC[C@@H]1C[C@]1(N)C(=O)O; CH2(1-naphthyl) = c1ccc2c(C*)cccc2c1; mXylylene = c1cc(C[*:1])cc(C[*:2])c1; oXylylene = c1ccc(C[*:2])c(C[*:1])c1; Hyp = O=C(O)[C@@H]1C[C@@H](O)CN1; Chg = N[C@H](C(=O)O)C1CCCCC1; Tle = CC(C)(C)[C@H](N)C(=O)O; Pip = O=C(O)[C@@H]1CCCCN1; Nva = CCC[C@H](N)C(=O)O; Abu = CC[C@H](N)C(=O)O; Ac3c = NC1(C(=O)O)CC1; Meb = Cc1ccc(C*)cc1

Experiments:
[1] = molecular target: T1, HCV NS3 protease type 1b/NS4A cofactor peptide (Hepatitis C virus genotype 1b, UniProt P26663); test: Recombinant HCV NS3 protease/NS4A cofactor peptide radiometric assay; type: biochemical, HCV genotype 1b
T1 construct: recombinant HCV NS3 protease (amino acid 1027 to 1206) was cloned in the pET11d bacterial expression vector; made in house; host or cells: E. coli BL21(DE3)pLysS
Description: Recombinant HCV NS3 Protease/NS4A Cofactor Peptide Radiometric Assay.
The enzyme was stored at −80° C., thawed on ice and diluted just prior to use in the assay buffer containing the NS4A cofactor peptide.
The substrate used for the NS3 protease/NS4A cofactor peptide radiometric assay, DDIVPC-SMSYTW [SEQ. ID NO. 2], is cleaved between the cysteine and the serine residues by the enzyme. The sequence DDIVPC-SMSYTW [SEQ. ID NO. 2] corresponds to the NS5A/NS5B natural cleavage site in which the cysteine residue in P2 has been substituted for a proline. The peptide substrate DDIVPC-SMSYTW [SEQ. ID NO. […] ID NO. […] [SEQ. ID NO. 5] (molar ratio enzyme: cofactor 1:100) in the absence or presence of inhibitors. The separation of substrate from products is performed by adding avidin-coated agarose beads to the assay mixture followed by filtration. […] ID NO. 4] product found in the filtrate allows for the calculation of the percentage of substrate conversion and of the percentage of inhibition.
Tris and Tris-HCl (UltraPure) were obtained from Gibco-BRL. Glycerol (UltraPure), MES and BSA were purchased from Sigma. TCEP was obtained from Pierce, DMSO from Aldrich and NaOH from Anachemia.
Assay buffer: 50 mM Tris HCl, pH 7.5, 30% (w/v) glycerol, 1 mg/mL BSA, 1 mM TCEP (TCEP added just prior to use from a 1 M stock solution in water).
Substrate: […] [SEQ. ID NO.
ID NO. 3] (˜1 nM final concentration).
The assay was performed in a 96-well polypropylene plate from Costar. Each well contained:
20 μL substrate/tracer in assay buffer;
10 μL±inhibitor in 20% DMSO/assay buffer;
10 μL NS3 protease 1b/NS4 cofactor peptide (molar ratio 1:100).
Blank (no inhibitor and no enzyme) and control (no inhibitor) were also prepared on the same assay plate.
The enzymatic reaction was initiated by the addition of the enzyme/NS4A peptide solution and the assay mixture was incubated for 40 min at 23° C. under gentle agitation. Ten (10) μL of 0.5N NaOH were added and 10 μL 1 M MES, pH 5.8 were added to quench the enzymatic reaction.
Twenty (20) μL of avidin-coated agarose beads (purchased from Pierce) were added in a Millipore MADP N65 filtration plate. The quenched assay mixture was transferred to the filtration plate, and incubated for 60 min at 23° C. under gentle agitation.
The plates were filtered using a Millipore MultiScreen Vacuum Manifold Filtration apparatus, and 40 μL of the filtrate was transferred in an opaque 96-well plate containing 60 μL of scintillation fluid per well.
The % inhibition was calculated with the following equation:
100-[(countsinh-countsblank)/(countsctl-countsblank)×100]

human leukocyte elastase = molecular target: T2, human leukocyte elastase (Homo sapiens, UniProt P08246); test: Specificity assay: human leukocyte elastase; type: biochemical
T2 sequence (P08246 30-267): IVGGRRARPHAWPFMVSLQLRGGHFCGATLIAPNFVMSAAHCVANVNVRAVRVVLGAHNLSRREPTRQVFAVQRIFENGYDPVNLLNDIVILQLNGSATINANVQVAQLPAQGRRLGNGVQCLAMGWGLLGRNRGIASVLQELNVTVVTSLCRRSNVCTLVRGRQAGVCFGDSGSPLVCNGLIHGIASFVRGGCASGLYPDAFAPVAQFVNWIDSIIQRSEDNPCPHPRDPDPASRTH
Description: The final conditions for each assay were as follows:
[100 μM Succ-AAPF-pNA [SEQ. ID NO.
The percentage of inhibition was calculated using the formula:
[1-((UVinn-UVblank)/(UVctl-UVblank))]×100

[2] = molecular target: T3, recombinant HCV NS3 protease type 1b (Hepatitis C virus genotype 1b, UniProt P26663); test: Recombinant HCV NS3 protease radiometric assay; type: biochemical, HCV genotype 1b
T3 construct: recombinant HCV NS3 protease (amino acid 1027 to 1206) was cloned in the pET11d bacterial expression vector; made in house; host or cells: E. coli BL21(DE3)pLysS
Text: Cloning, Expression and Purification of the Recombinant HCV NS3 Protease type 1b.
Serum from an HCV-infected patient was obtained through an external collaboration (Bernard Willems MD, Hôpital St-Luc. Montréal. Canada and Dr. Donald Murphy, Laboratoire de Santé Publique du Québec, Ste-Anne de Bellevue, Canada). An engineered full-length cDNA template of the HCV genome was constructed from DNA fragments obtained by reverse transcription-PCR (RT-PCR) of serum RNA and using specific primers selected on the basis of homology between other genotype 1b strains. From the determination of the entire genomic sequence, a genotype 1b was assigned to the HCV isolate according to the classification of Simmonds et al. (J. Clin. Microbiol., (1993), 31, p.1493-1503). […] A DNA fragment encoding the polyprotein precursor (NS3/NS4A/NS4B/NS5A/NS5B) was generated by PCR and introduced into eukaryotic expression vectors. […] The mature NS3 protein was not observed with expression of a polyprotein precursor containing the mutation S1165A, which inactivates the NS3 protease, confirming the functionality of the HCV NS3 protease.
The DNA fragment encoding the recombinant HCV NS3 protease (amino acid 1027 to 1206) was cloned in the pET11d bacterial expression vector. The NS3 protease expression in E. coli BL21(DE3)pLysS was induced by incubation with 1 mM IPTG for 3 h at 22° C. A typical fermentation (18 L) yielded approximately 100 g of wet cell paste. The cells were resuspended in lysis buffer (3.0 mL/g) consisting of 25 mM sodium phosphate, pH 7.5, 10% glycerol (v/v), 1 mM EDTA, 0.01% NP-40 and stored at −80° C. Cells were thawed and homogenized following the addition of 5 mM DTT. Magnesium chloride and DNase were then added to the homogenate at final concentrations of 20 mM and 20 μg/mL respectively. After a 25 min incubation at 4° C., the homogenate was sonicated and centrifuged at 15000×g for 30 min at 4° C. The pH of the supernatant was then adjusted to 6.5 using a 1 M sodium phosphate solution.
An additional gel filtration chromatography step was added to the 2 step purification procedure described in WO 95/22985 (incorporated herein by reference). Briefly, the supernatant from the bacterial extract was loaded on a SP HiTrap column (Pharmacia) previously equilibrated at a flow rate of 2 mL/min in buffer A (50 mM sodium phosphate. pH 6.5, […], 1 mM EDTA, 5 mM DTT, 0.01% NP-40). The column was then washed with buffer A containing 0.15 M NaCl and the protease eluted by applying 10 column volumes of a linear 0.15 to 0.3 M NaCl gradient. NS3 protease-containing fractions were pooled and diluted to a final NaCl concentration of 0.1 M. The enzyme was further purified on a HiTrap Heparin column (Pharmacia) equilibrated in buffer B (25 mM sodium phosphate, pH 7.5, 10% glycerol, 5 mM DTT, 0.01% NP-40). The sample was loaded at a flow rate of 3 mL/min. The column was then washed with buffer B containing 0.15 M NaCl at a flow rate of 1.5 mL/min. Two step washes were performed in the presence of buffer B containing 0.3 or 1 M NaCl. The protease was recovered in the 0.3M NaCl wash, diluted 3-fold with buffer B, reapplied on the HiTrap Heparin column and eluted with buffer B containing 0.4 M NaCl. Finally, the NS3 protease-containing fractions were applied on a Superdex 75 HiLoad 16/60 column (Pharmacia) equilibrated in buffer B containing 0.3 M NaCl. The purity of the HCV NS3 protease obtained from the pooled tractions was judged to be greater than 95% by SDS-PAGE followed by densitometry analysis.
The enzyme was stored at −80° C. and was thawed on ice and diluted just prior to use.
Recombinant HCV NS3 Protease Radiometric Assay
The substrate used for the HCV NS3 protease radiometric assay, DDIVPC-SMSYTW [SEQ. ID NO. 2], is cleaved between the cysteine and the serine residues by the enzyme. The sequence DDIVPC-SMSYTW [SEQ. ID NO. 2] corresponds to the NS5A/NS5B natural cleavage site in which the cysteine residue in P2 has been substituted for a proline. […]

[3] = Table 5, first line of the cell, NS3 protease/NS4A cofactor peptide radiometric assay (Example 38), read-out: IC50

T1 sequence (P26663 1027-1206, other chains not shown): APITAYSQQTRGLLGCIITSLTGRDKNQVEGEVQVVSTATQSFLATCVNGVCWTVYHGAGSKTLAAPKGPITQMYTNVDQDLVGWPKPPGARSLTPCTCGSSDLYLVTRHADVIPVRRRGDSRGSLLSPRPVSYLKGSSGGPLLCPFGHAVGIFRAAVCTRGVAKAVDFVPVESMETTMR
T3 sequence (P26663 1027-1206): as the sequence (P26663 1027-1206, other chains not shown) above

Row | Compound | IC50 [2] [µM] | other results
1 | CC[C@@H]1C[C@]1(NC(=O)[C@@H]1C[C@@H](OCc2cccc3ccccc23)CN1C(=O)[C@@H](NC(=O)[C@@H](NC(=O)[C@@H](CCC(=O)O)NC(=O)[C@H](CC(=O)O)NC(C)=O)C1CCCCC1)C1CCCCC1)C(=O)O [compound 509] (Ac-D[dE][Chg][Chg][Hyp](CH2(1-naphthyl))[Acca(2-Et,1R,2R)]-OH) | – | IC50 [1, 3]: 0.015 µM; IC50 (human leukocyte elastase): > 300 µM
2 | CC(=O)N[C@@H](CC(=O)O)C(=O)N[C@@H](CC(=O)O)C(=O)N[C@H](C(=O)N[C@H](C(=O)N1CCC[C@H]1C(=O)N[C@@H](CS)C(=O)O)C(C)C)C1CCCCC1 [compound 110] (Ac-DD[Chg]VPC-OH; C-terminus assumed) | 24 | –
3 | Ac-DDIVVC [compound 118] | 133 | –
4 | CC[C@H](C)[C@H](NC(=O)[C@H](CC(=O)O)NC(=O)[C@H](CC(=O)O)NC(C)=O)C(=O)N[C@H](C(=O)N1CCC[C@H]1C(=O)N[C@@H](CS)C(=O)O)C1CCCCC1 [compound 114] (Ac-DDI[Chg]PC-OH; C-terminus assumed) | 50 | –
5 | CCC[C@H](NC(=O)[C@@H]1CCCN1C(=O)[C@@H](NC(=O)[C@@H](NC(=O)[C@@H](NC(=O)[C@H](CC(=O)O)NC(C)=O)C(C)(C)C)[C@@H](C)CC)C(C)C)C(=O)O [compound 129] (Ac-D[Tle]IVP[Nva]-OH; C-terminus assumed) | 270 | –
6 | Ac-DDVVPC [compound 109] | 80 | –
7 | CC(=O)N[C@H](C(=O)N[C@H](C(=O)N1C[C@H](OCc2cccc3ccccc23)C[C@H]1C(=O)NC1(C(=O)O)CC1)C(C)C)C1CCCCC1 [compound 227] (Ac-[Chg]V[Hyp](CH2(1-naphthyl))[Ac3c]-OH) | – | IC50 ([1]; Table 2, unmarked values: NS3 protease/NS4A cofactor peptide radiometric assay, read-out: IC50): 3 µM; IC50 (human leukocyte elastase): > 600 µM
8 | CC[C@@H]1C[C@]1(NC(=O)[C@@H]1C[C@@H](OCc2cccc3ccccc23)CN1C(=O)[C@@H](NC(=O)[C@@H](NC(=O)[C@H](NC(=O)[C@H](CC(=O)O)NC(C)=O)C(C)C)C1CCCCC1)C(C)C)C(=O)O [compound 521] (Ac-D[dV][Chg]V[Hyp](CH2(1-naphthyl))[Acca(2-Et,1R,2R)]-OH) | – | IC50 [1, 3]: 0.024 µM; IC50 (human leukocyte elastase): > 300 µM
9 | Ac-DDLVPC [compound 112] | 92 | –
10 | Ac-DDIVAC [compound 120] | 76 | –
11 | Ac-DVIVPC [compound 107] | 85 | –
12 | CCC[C@H](NC(=O)[C@@H]1C[C@@H](OCc2ccccc2C)CN1C(=O)[C@@H](NC(=O)[C@@H](NC(=O)[C@H](CC(=O)O)NC(=O)[C@H](CC(=O)O)NC(C)=O)[C@@H](C)CC)C(C)C)C(=O)O [compound 204] (Ac-DDIV[Hyp](oXylylene)[Nva]-OH; C-terminus assumed) | 9.4 | –
13 | CCC[C@H](NC(=O)[C@@H]1CCCCN1C(=O)[C@@H](NC(=O)[C@@H](NC(=O)[C@H](CC(=O)O)NC(=O)[C@H](CC(=O)O)NC(C)=O)[C@@H](C)CC)C(C)C)C(=O)O [compound 127] (Ac-DDIV[Pip][Nva]-OH; C-terminus assumed) | 605 | –
14 | CC[C@H](NC(=O)[C@@H](NC(=O)[C@@H](NC(=O)[C@H](CC(=O)O)NC(=O)[C@H](CC(=O)O)NC(C)=O)[C@@H](C)CC)C(C)C)C(=O)N[C@@H](CS)C(=O)O [compound 115] (Ac-DDIV[Abu]C-OH; C-terminus assumed) | 58 | –
15 | CC(=O)N[C@H](C(=O)N[C@H](C(=O)N1C[C@H](Oc2ccc(Br)cc2)C[C@H]1C(=O)NC1(C(=O)O)CC1)C(C)C)C1CCCCC1 [compound 238] | – | IC50 ([1]; IC50, Table 2, unmarked values: NS3 protease/NS4A cofactor peptide radiometric assay): 27 µM; IC50 (human leukocyte elastase; Table 2, human leukocyte elastase, read-out: HLE): 195 µM
16 | CCC[C@H](NC(=O)[C@@H]1C[C@@H](OCc2ccc(C)cc2)CN1C(=O)[C@@H](NC(=O)[C@@H](NC(=O)[C@H](CC(=O)O)NC(=O)[C@H](CC(=O)O)NC(C)=O)[C@@H](C)CC)C(C)C)C(=O)O [compound 206] (Ac-DDIV[Hyp](Meb)[Nva]-OH) | 6.4 | –
17 | Ac-DEIVPC [compound 106] | 16 | –
18 | CCC[C@H](NC(=O)[C@@H]1C[C@@H](OCc2cccc(C)c2)CN1C(=O)[C@@H](NC(=O)[C@@H](NC(=O)[C@H](CC(=O)O)NC(=O)[C@H](CC(=O)O)NC(C)=O)[C@@H](C)CC)C(C)C)C(=O)O [compound 205] (Ac-DDIV[Hyp](mXylylene)[Nva]-OH; C-terminus assumed) | 6.7 | –
